The record followed here is patent US8828908B2, “Herbicidally active bicyclic 1,3-dione compounds” (Syngenta Limited, priority 2007, dated 2014).

SMILES strings stand for the structures.

Holding throughout (type): in vivo
The test system of test [1] is Setaria faberi (SETFA). As to the kind of experiment: Example A post-emergence herbicidal glasshouse test. The conditions noted are these: 312 h, evaluated after 13 days, 100=total damage to plant, 0=no damage. An outline of the steps:
(§1)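 Pots, standard soil; spray at day 1 (pre) or day 8 (post); a.i. formulated in acetone/water 50:50 + 0.5% Tween 20; 24/16 °C, 14 h light, 65% RH, watered twice daily; visual rating at 13 d (0 = no damage, 100 = total damage).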

For test [2], the system named is Avena fatua (AVEFA). Described as above. Particulars: 312 h, evaluated after 13 days, 100=total damage to plant, 0=no damage. In short, it runs like this:
as §1

Test [3] has as its system Solanum nigrum (SOLNI). Described as above. The conditions noted are these: 250 g/ha, evaluated after 13 days, 100=total damage to plant, 0=no damage. An outline of the steps: as §1
Test [4] concerns Alopecurus myosuroides (ALOMY). The description is as above. Particulars: 312 h, evaluated after 13 days, 100=total damage to plant, 0=no damage. An outline of the steps:
as §1

For test [5], the system named is Echinochloa crus-galli (ECHCG). The test is described as above. The conditions noted are these: 312 h, evaluated after 13 days, 100=total damage to plant, 0=no damage. In short, it runs like this:
as §1

Test [6] concerns Amaranthus retroflexus (AMARE). Described as above. The conditions noted are these: 312 h, evaluated after 13 days, 100=total damage to plant, 0=no damage. An outline of the steps:
as §1

The test system of test [7] is Lolium perenne (LOLPE). Put plainly: Example B pre-emergence herbicidal greenhouse test. Particulars: 480 h, evaluated after 20 days, 100=total damage to plant, 0=no damage. In short, it runs like this:
(§2)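 Seeds sown in standard soil in pots; after 1 day (pre-emergence) or 10 days (post-emergence) of glasshouse cultivation, pots were sprayed with an aqueous solution of the ingredient formulated in acetone plus an emulsifier/solvent mix. Damage scored 20 days (pre) or 15 days (post) later, 0 (none) to 100 (total).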

In test [8] the test system is Setaria faberi (SETFA). As to the kind of experiment: Example B pre-emergence herbicidal greenhouse test. Particulars: 480 h, evaluated after 20 days, 100=total damage to plant, 0=no damage. An outline of the steps: as §2
The subject of test [9] is Avena fatua (AVEFA). Put plainly: Example B pre-emergence herbicidal greenhouse test. Particulars: 480 h, evaluated after 20 days, 100=total damage to plant, 0=no damage. In short, it runs like this: as §2
In test [10] the test system is Digitaria sanguinalis (DIGSA). Put plainly: Example B pre-emergence herbicidal greenhouse test. Particulars: 480 h, evaluated after 20 days, 100=total damage to plant, 0=no damage. An outline of the steps:
as §2

Test [11] has as its system Alopecurus myosuroides (ALOMY). Put plainly: Example B pre-emergence herbicidal greenhouse test. The conditions noted are these: 480 h, evaluated after 20 days, 100=total damage to plant, 0=no damage. An outline of the steps: as §2
Test [12] has as its system Echinochloa crus-galli (ECHCG). Put plainly: Example B pre-emergence herbicidal greenhouse test. Particulars: 480 h, evaluated after 20 days, 100=total damage to plant, 0=no damage. An outline of the steps:
as §2

Test [13] concerns Lolium perenne (LOLPE). As to the kind of experiment: Example B post-emergence herbicidal greenhouse test. Particulars: 360 h, evaluated after 15 days, 100=total damage to plant, 0=no damage. In short, it runs like this:
as §2

Test [14] concerns Setaria faberi (SETFA). Described as above. The conditions noted are these: 360 h, evaluated after 15 days, 100=total damage to plant, 0=no damage. In short, it runs like this:
as §2

The test system of test [15] is Avena fatua (AVEFA). The test is described as above. Particulars: 360 h, evaluated after 15 days, 100=total damage to plant, 0=no damage. An outline of the steps: as §2
Test [16] deals with Digitaria sanguinalis (DIGSA). The description is as above. The conditions noted are these: 360 h, evaluated after 15 days, 100=total damage to plant, 0=no damage. In short, it runs like this: as §2
Test [17] deals with Alopecurus myosuroides (ALOMY). The test is described as above. Particulars: 360 h, evaluated after 15 days, 100=total damage to plant, 0=no damage. In short, it runs like this:
as §2

Test [18] concerns Echinochloa crus-galli (ECHCG). The description is as above. Particulars: 360 h, evaluated after 15 days, 100=total damage to plant, 0=no damage. In short, it runs like this: as §2
Test [19] concerns Setaria faberi (SETFA). Put plainly: Example A pre-emergence herbicidal glasshouse test. Particulars: 312 h, Rate 250 g/ha, evaluated after 13 days, 100=total damage to plant, 0=no damage to plant. In short, it runs like this: as §1
Test [20] has as its system Avena fatua (AVEFA). As to the kind of experiment: Example A pre-emergence herbicidal glasshouse test. The conditions noted are these: 312 h, Rate 250 g/ha, evaluated after 13 days, 100=total damage to plant, 0=no damage to plant. An outline of the steps:
as §1

Test [21] deals with Solanum nigrum (SOLNI). As to the kind of experiment: Example A pre-emergence herbicidal glasshouse test. The conditions noted are these: Rate 250 g/ha, evaluated after 13 days, 100=total damage to plant, 0=no damage to plant. An outline of the steps: as §1
For test [22], the system named is Alopecurus myosuroides (ALOMY). As to the kind of experiment: Example A pre-emergence herbicidal glasshouse test. The conditions noted are these: 312 h, Rate 250 g/ha, evaluated after 13 days, 100=total damage to plant, 0=no damage to plant. An outline of the steps: as §1
Test [23] deals with Echinochloa crus-galli (ECHCG). Put plainly: Example A pre-emergence herbicidal glasshouse test. Particulars: 312 h, Rate 250 g/ha, evaluated after 13 days, 100=total damage to plant, 0=no damage to plant. In short, it runs like this:
as §1

For test [24], the system named is Amaranthus retroflexus (AMARE). As to the kind of experiment: Example A pre-emergence herbicidal glasshouse test. Particulars: 312 h, Rate 250 g/ha, evaluated after 13 days, 100=total damage to plant, 0=no damage to plant. An outline of the steps: as §1

One may read the pest or weed control as how far the test organism was held down. Low values mean weak suppression, high ones strong suppression. Consider `Cc1ccc(-c2ccc(Cl)cc2)cc1C1=C(O)[C@H]2CC[C@H](C2)C1=O` [Compound T1, 3-(4′-chloro-4-methylbiphen-3-yl)bicyclo[3.2.1]octane-2,4-dione], for which the pest or weed control at 250 g/ha in the test on Setaria faberi (SETFA) [1] amounted to 100%; in the test with Avena fatua (AVEFA) [2] it was 90%; in [4] it was 80%; in test [5] it was 100%; in test [6], 50%; in the test on Lolium perenne (LOLPE) [7], 100%. The pest or weed control at 250 g/ha in the test with Setaria faberi (SETFA) [8] worked out at 100%; in the test on Avena fatua (AVEFA) [9], 30%; in test [10], 50%; in test [11] it was 80%; in [12], 100%; in the test with Setaria faberi (SETFA) [19], 90%. Also, the pest or weed control at 250 g/ha in the test with Avena fatua (AVEFA) [20] was found to be 40%; in test [22], 50%; in [23], 90%; in [24], 0%. Besides, the “SOLNI damage to plant” value was 20 in the test on Solanum nigrum (SOLNI) [3] and 0 in the test on Solanum nigrum (SOLNI) [21]. Besides, the pest or weed control at 125 g/ha is 50% with Lolium perenne (LOLPE) [13]; 90% in the test on Setaria faberi (SETFA) [14]; 30% in the test with Avena fatua (AVEFA) [15]; 90% in test [16]; 50% in test [17]; 90% in test [18].
